Data as given in PubChem BioAssay AID2060497 (Molecular Pharmacology Branch, DTP, NCI, 2025).

Tested on: 317291-083-R-J1-PDC complex spheroids, viability
Test: Anticancer human tumor 317291-083-R-J1-PDC patient-derived soft tissue sarcoma cell line growth inhibition [GQUAD]
Settings: for IC50: curve of first compound; for viability, T/C: stronger effect = lower value
Method in brief: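 Viability of tumor cells grown as complex spheroids with endothelial and stromal cells, exposed to drug combinations. Top concentration at or near clinical Cmax (else 10 microM), diluted in half-log increments.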

[1] = second compound 0.0316 µM, first compound 0.0316 µM
[2] = second compound 0.0316 µM, first compound 0.1 µM
[3] = second compound 0.0316 µM, first compound 0.316 µM
[4] = second compound 0.0316 µM, first compound 1 µM
[5] = second compound 0.0316 µM, first compound 3.16 µM
[6] = second compound 0.0316 µM, first compound 10 µM
[7] = second compound 0.1 µM, first compound 0.0316 µM
[8] = second compound 0.1 µM, first compound 0.1 µM
[9] = second compound 0.1 µM, first compound 0.316 µM
[10] = second compound 0.1 µM, first compound 1 µM
[11] = second compound 0.1 µM, first compound 3.16 µM
[12] = second compound 0.1 µM, first compound 10 µM
[13] = second compound 0.316 µM, first compound 0.0316 µM
[14] = second compound 0.316 µM, first compound 0.1 µM
[15] = second compound 0.316 µM, first compound 0.316 µM
[16] = second compound 0.316 µM, first compound 1 µM
[17] = second compound 0.316 µM, first compound 3.16 µM
[18] = second compound 0.316 µM, first compound 10 µM
[19] = second compound 1 µM, first compound 0.0316 µM
[20] = second compound 1 µM, first compound 0.1 µM
[21] = second compound 1 µM, first compound 0.316 µM
[22] = second compound 1 µM, first compound 1 µM
[23] = second compound 1 µM, first compound 3.16 µM
[24] = second compound 1 µM, first compound 10 µM
[25] = second compound 3.16 µM, first compound 0.0316 µM
[26] = second compound 3.16 µM, first compound 0.1 µM
[27] = second compound 3.16 µM, first compound 0.316 µM
[28] = second compound 3.16 µM, first compound 1 µM
[29] = second compound 3.16 µM, first compound 3.16 µM
[30] = second compound 3.16 µM, first compound 10 µM
[31] = second compound 10 µM, first compound 0.0316 µM
[32] = second compound 10 µM, first compound 0.1 µM
[33] = second compound 10 µM, first compound 0.316 µM
[34] = second compound 10 µM, first compound 1 µM
[35] = second compound 10 µM, first compound 3.16 µM
[36] = second compound 10 µM, first compound 10 µM
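Also: spheroids exposed to compounds for one week before readout.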
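For viability, T/C in this document: percent viability relative to DMSO vehicle wells taken as 100%.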

`Cc1cccc(N(C)C(=O)C2C(O)CCN2c2nc(C)cc(C(F)(F)F)c2C#N)c1` (stereo unspecified) + Cc1cnc(CNC(=O)c2c(=O)c3ccc(N4CCCN(C)CC4)nc3n3c2sc2ccccc23)cn1 showed an IC50 (second compound 0.0316 µM) greater than 10000 nM, an IC50 (second compound 0.1 µM) greater than 10000 nM and an IC50 (second compound 0.316 µM) of 4450 nM. The IC50 (second compound 1 µM) was less than 31.6 nM, the IC50 (second compound 3.16 µM) was less than 31.6 nM and the IC50 (second compound 10 µM) was less than 31.6 nM. For the same compound, the viability, T/C [1] was 118%, the viability, T/C [2] was 81.9% and the viability, T/C [3] was 89.3%. For the same compound, the viability, T/C [4] was 84.5%, the viability, T/C [5] was 85.2% and the viability, T/C [6] was 80.2%. For the same compound, the viability, T/C [7] was 78.7%, the viability, T/C [8] was 58.7% and the viability, T/C [9] was 62.3%. For the same compound, the viability, T/C [10] was 74%, the viability, T/C [11] was 56% and the viability, T/C [12] was 61.2%. It also gave a viability, T/C [13] of 41.6%, a viability, T/C [14] of 83.8% and a viability, T/C [15] of 48%. For the same compound, the viability, T/C [16] was 43.2%, the viability, T/C [17] was 64% and the viability, T/C [18] was 35.5%. For the same compound, the viability, T/C [19] was 38.2%, the viability, T/C [20] was 29.7% and the viability, T/C [21] was 37.7%. The viability, T/C [22] was 28.5%, the viability, T/C [23] was 37.9% and the viability, T/C [24] was 30.1%. For the same compound, the viability, T/C [25] was 25.4%, the viability, T/C [26] was 22.3% and the viability, T/C [27] was 16.1%. It also gave a viability, T/C [28] of 18.2%, a viability, T/C [29] of 28.9% and a viability, T/C [30] of 33.5%. For the same compound, the viability, T/C [31] was 33.2%, the viability, T/C [32] was 35.5% and the viability, T/C [33] was 24.4%. The viability, T/C [34] was 42.2%, the viability, T/C [35] was 28.8% and the viability, T/C [36] was 52.6%.

Work on `Cn1ncnc1[C@H]1c2n[nH]c(=O)c3cc(F)cc(c23)N[C@@H]1c1ccc(F)cc1` + Cc1cnc(CNC(=O)c2c(=O)c3ccc(N4CCCN(C)CC4)nc3n3c2sc2ccccc23)cn1 yielded an IC50 (second compound 0.0316 µM) of 246 nM, an IC50 (second compound 0.1 µM) of 24.2 nM and an IC50 (second compound 0.316 µM) of less than 0.999 nM. It also gave an IC50 (second compound 1 µM) of less than 0.999 nM, an IC50 (second compound 3.16 µM) of less than 0.999 nM and an IC50 (second compound 10 µM) of less than 0.999 nM. The viability, T/C (second compound 0.0316 µM, first compound 0.000999 µM) was 88.6%, the viability, T/C (second compound 0.0316 µM, first compound 0.00316 µM) was 106% and the viability, T/C (second compound 0.0316 µM, first compound 0.00999 µM) was 75.6%. For the same compound, the viability, T/C [1] was 74%, the viability, T/C (second compound 0.0316 µM, first compound 0.0999 µM) was 59.8% and the viability, T/C [3] was 46.8%. The viability, T/C (second compound 0.1 µM, first compound 0.000999 µM) was 73.8%, the viability, T/C (second compound 0.1 µM, first compound 0.00316 µM) was 74.7% and the viability, T/C (second compound 0.1 µM, first compound 0.00999 µM) was 49.7%. For the same compound, the viability, T/C [7] was 50.4%, the viability, T/C (second compound 0.1 µM, first compound 0.0999 µM) was 37.9% and the viability, T/C [9] was 25.3%. It also gave a viability, T/C (second compound 0.316 µM, first compound 0.000999 µM) of 46.1%, a viability, T/C (second compound 0.316 µM, first compound 0.00316 µM) of 42.7% and a viability, T/C (second compound 0.316 µM, first compound 0.00999 µM) of 41.2%. For the same compound, the viability, T/C [13] was 25.5%, the viability, T/C (second compound 0.316 µM, first compound 0.0999 µM) was 36.7% and the viability, T/C [15] was 24.2%. It also gave a viability, T/C (second compound 1 µM, first compound 0.000999 µM) of 32.2%, a viability, T/C (second compound 1 µM, first compound 0.00316 µM) of 35.5% and a viability, T/C (second compound 1 µM, first compound 0.00999 µM) of 31.4%. The viability, T/C [19] was 21.1%, the viability, T/C (second compound 1 µM, first compound 0.0999 µM) was 24.3% and the viability, T/C [21] was 23.9%. It also gave a viability, T/C (second compound 3.16 µM, first compound 0.000999 µM) of 17.3%, a viability, T/C (second compound 3.16 µM, first compound 0.00316 µM) of 13.4% and a viability, T/C (second compound 3.16 µM, first compound 0.00999 µM) of 16.9%. The viability, T/C [25] was 17.2%, the viability, T/C (second compound 3.16 µM, first compound 0.0999 µM) was 20.3% and the viability, T/C [27] was 12.7%. The viability, T/C (second compound 10 µM, first compound 0.000999 µM) was 41%, the viability, T/C (second compound 10 µM, first compound 0.00316 µM) was 35.4% and the viability, T/C (second compound 10 µM, first compound 0.00999 µM) was 25.4%. It also gave a viability, T/C [31] of 34.6%, a viability, T/C (second compound 10 µM, first compound 0.0999 µM) of 29.9% and a viability, T/C [33] of 25.4%.

`O=C(c1cc(Cc2n[nH]c(=O)c3ccccc23)ccc1F)N1CCN(C(=O)C2CC2)CC1` + Cc1cnc(CNC(=O)c2c(=O)c3ccc(N4CCCN(C)CC4)nc3n3c2sc2ccccc23)cn1 was tested, and the IC50 (second compound 0.0316 µM) was greater than 10000 nM, the IC50 (second compound 0.1 µM) was 2170 nM and the IC50 (second compound 0.316 µM) was less than 31.6 nM. The IC50 (second compound 1 µM) was less than 31.6 nM, the IC50 (second compound 3.16 µM) was less than 31.6 nM and the IC50 (second compound 10 µM) was less than 31.6 nM. For the same compound, the viability, T/C [1] was 101%, the viability, T/C [2] was 92.4% and the viability, T/C [3] was 89.7%. For the same compound, the viability, T/C [4] was 77.5%, the viability, T/C [5] was 67.7% and the viability, T/C [6] was 59.3%. The viability, T/C [7] was 88.3%, the viability, T/C [8] was 72.7% and the viability, T/C [9] was 64.5%. For the same compound, the viability, T/C [10] was 57.6%, the viability, T/C [11] was 53.3% and the viability, T/C [12] was 31.2%. The viability, T/C [13] was 44.7%, the viability, T/C [14] was 43.4% and the viability, T/C [15] was 57.1%. The viability, T/C [16] was 33.8%, the viability, T/C [17] was 39.2% and the viability, T/C [18] was 46%. For the same compound, the viability, T/C [19] was 30%, the viability, T/C [20] was 38.5% and the viability, T/C [21] was 51.5%. The viability, T/C [22] was 26.6%, the viability, T/C [23] was 24.2% and the viability, T/C [24] was 19.6%. The viability, T/C [25] was 17.2%, the viability, T/C [26] was 14.6% and the viability, T/C [27] was 64.8%. The viability, T/C [28] was 39.8%, the viability, T/C [29] was 32.8% and the viability, T/C [30] was 14.8%. The viability, T/C [31] was 31.1%, the viability, T/C [32] was 16.8% and the viability, T/C [33] was 19.1%. For the same compound, the viability, T/C [34] was 36.2%, the viability, T/C [35] was 20.5% and the viability, T/C [36] was 15.2%.
